Marks after values point to notes of the source that are not given here.
Columns and labels:
Jurkat cells = assay: Toxicity assays in Jurkat cells (cell counting, necrosis and apoptosis by flow cytometry); type: cell-based, Human
Experimental: Fig 8 Toxicity assays in Jurkat cells. Jurkat cells were adjusted to 1×10^9 cells/L in RPMI-1640 medium containing 1% Penicillin/Streptomycin and 10% fetal bovine serum. The cells were grown in triplicate in the presence or absence of compound 5 at the indicated concentrations for 4 days at 37°C, under a humidified 5% CO2 atmosphere. CAM was used as a reference compound. For cell necrosis and apoptosis assays, samples (10^6 cells) were collected daily and determined by flow cytometry. Apoptotic and necrotic cells were expressed as a percentage of total cells.
Human leukemic cell lines, HS-Sultan (Burkitt’s lymphoma), Jurkat (T-cell acute lymphoblastic leukemia), and U937 (histiocytic lymphoma), were adjusted to 1×10^9 cells/l in RPMI-1640 medium supplemented with 10% fetal bovine serum and 1% penicillin/streptomycin. The cells were grown in triplicate in the absence (control cultures) or presence of CAM or CAM dimers for 4 days at 37°C, under a humidified 5% CO2 atmosphere. The medium was changed daily; CAM or CAM dimer addition was repeated after medium change. Aliquots were collected daily and counted in a CELL-DYN 3700 Hematology Analyzer. For cell necrosis and apoptosis assays, samples (10^6 cells) were collected and determined using the Annexin V-PE Apoptosis Detection Kit I (BD Pharmingen) for flow cytometry, according to the manufacturers’ instructions. Flow cytometry data were analyzed using the FlowJo flow cytometry analysis software. Necrotic and apoptotic cells were expressed as a percentage of total cells.

[1] = system: post-translocation ribosomal complex (complex C) derived from E. coli; assay: Inhibition of peptide-bond formation (puromycin reaction, AcPhe-puromycin synthesis); type: biochemical; conditions: for Ki: 25°C, buffer A; for k off: nonlinear regression of k eq
Experimental: The inhibitory effect of CAM dimers on peptide-bond formation was studied using the puromycin reaction, a model reaction between puromycin and a post-translocation ribosomal complex (complex C) derived from E. coli. Since puromycin, a pseudo-substrate of PTase which binds to the A-site of the catalytic center, was present in excess, the reaction obeyed first-order kinetics. The first-order rate constant, k obs, at each concentration of puromycin was determined by fitting the x values into Eq 1, ln100/100−x=kobst (1) where x is the product AcPhe-puromycin, expressed as the percentage of complex C added in the reaction mixture, and t is the time of the reaction.
A representative time plot obtained at 400 μM puromycin, in the absence of inhibitor, is illustrated in Fig 3A (upper line) and, as expected, is characterized by linearity. However, when the reaction proceeded in the presence of a CAM dimer, e.g. compound 5, the time plots were characterized by two unique features that distinguish them from a typical kinetic behavior. […] Second, the slopes of both progress curves varied as a function of the inhibitor concentration (Fig 3A, four lower curves). […] These kinetic results are consistent with compound 5 operating through an induced fit mechanism (Fig 3C), in which the inhibitor first binds rapidly to complex C to form the encounter complex CI, which then undergoes a slow conformational change to produce a final, tighter complex C*I. Corroborative evidence for the consistency of this model is provided by the hyperbolic shape of the equilibration plots (k eq versus [I]), in which k eq represents the apparent rate constant for the attainment of equilibrium among C, CI, and C*I (Fig 3B). If one-step mechanism of inhibition was applicable (C + I ⇄ C*I), k eq should be a linear function of [I] [27]. […] Because the isomerization constant k on/k off was calculated to be 3.6, the inhibition process was finally associated with high overall inhibition of peptide-bond formation (Ki* = 0.3 μM; S1 Fig, panel C). In addition, the slow k off rate (0.64 min^-1) provided prolonged residence time for compound 5 at the ribosome, a behavior potentially predicting good efficacy in vivo [28].
The puromycin reaction, i.e. the reaction between complex C and excess puromycin (S), was carried out at 25°C in buffer A [100 mM Tris-HCl pH 7.2, 6 mM (CH3COO)2Mg, 100 mM NH4Cl and 6 mM 2-mercaptoethanol]. Under these conditions, the puromycin reaction obeys C + S ⇄KS CS→kcat C^′ + S pseudo-first-order kinetics and was analyzed as previously described.
In the presence of CAM dimers, biphasic semi-logarithmic time plots were obtained. The slope of the straight line through the origin was seen as the value of the apparent rate constant, k obs(early), at the early phase of the reaction. Similarly, the slope of the second straight line was taken as the apparent rate constant, k obs(late), at the late phase of the puromycin reaction.

[2] = system: 70S ribosomes from E. coli (central loop of Domain V of 23S rRNA); assay: Time-resolved footprinting of RI and R*I complexes; type: binding; conditions: ratio to control lane R
Excerpt: The behavior of compound 5 was compared to that of compound 4, which is bearing a flexible linker of the same length. The footprinting analysis exploits the slow-binding character of the dimers and has been successfully applied in studying various slow-binding inhibitors of the PTase. To overcome potential drawbacks resulting from protections caused by natural PTase substrates, naked 70S ribosomes were used instead of complex C. To footprint the RI complex, compounds 4 or 5 used in excess, and ribosomes were incubated at 25°C for 2 s, and then treated with chemical probes for 3 min to modify accessible nucleosides in 23S rRNA. Because the first step of binding, R + I ⇄ RI, equilibrates rapidly while the formation of R*I occurs slowly, the main product formed during such a short time interval was complex RI (>93%). To footprint the R*I complex, each dimer and ribosomes were incubated for 10 min, a time interval that is over than ten half-lives required for the attainment of the steady state. Because the isomerization constant, k on/k off, is at least 2.2 (see Table 1), most of the ribosomes added in the reaction mixture (>70%) were in the form of R*I complex at the end of this time interval.
Chemical modification of complexes RI and R*I with DMS, kethoxal, or CMCT, primer extension analysis, and gel electrophoresis of the primer extension products were performed as previously described. […] Quantitative scanning of the gels, and normalization of the band intensities were made as previously shown. Values indicated in Table 2 denote the ratio between the normalized intensity of a band of interest and the normalized intensity of the corresponding band in the control lane (ribosomes non-treated with CAM or CAM dimers).

[3] = overall inhibition constant (CI + C*I)
[4] = R*I complex (10 min incubation)

Compound: O=C(N[C@H](CO)[C@H](O)c1ccc([N+](=O)[O-])cc1)c1ccc(C(=O)N[C@H](CO)[C@H](O)c2ccc([N+](=O)[O-])cc2)cc1 [Compound 5, N^1,N^4-Bis ((1R,2R)-1,3-dihydroxy-1-(4-nitrophenyl)propan-2-yl)-terephthalamide]
- apoptosis, expressed as a percentage of total cells (Jurkat cells; 60 μM, flow cytometry): 43%
- necrosis (Jurkat cells; 60 μM, flow cytometry): failed to induce necrosis
- growth of Jurkat cells (Jurkat cells; daily cell counting, all tested concentrations): the rate of growth was reduced proportionally to the concentration
- apparent association rate constant, (k on + k off)/K i [1]: 3×10^4 M^1s^-1
- fold more potent than homodimers of CAM previously synthesized by Berkov-Zrihen et al. ([1]; direct comparison is not accurate): ~ 10 fold
- Ki ([1]; encounter complex CI): 1400 ± 120 nM
- k off [1]: 0.0105 ± 0.0005 s⁻¹
- Ki [1, 3]: 300 ± 30 nM
- fold more potent than CAM ([1]; ranking by K i*): 3 fold
- Relative reactivity of A2058 [2, 4]: 0.32 ± 0.04 ^b ^, ^c
- Relative reactivity of A2059 ([2]; R*I complex): 0.33 ± 0.08 ^b ^, ^c
- Relative reactivity of A2062 ([2]; R*I complex): 0.40 ± 0.09 ^b ^, ^c
- Relative reactivity of A2451 ([2]; R*I complex): 0.41 ± 0.05 ^c
- Relative reactivity of G2505 ([2]; R*I complex): 0.35 ± 0.06 ^c
- Relative reactivity of U2506 ([2]; R*I complex): 0.33 ± 0.05 ^b ^, ^c
- Relative reactivity of U2609 ([2]; R*I complex): 0.79 ± 0.08 ^b ^, ^c
- Relative reactivity of A2058 ([2]; RI complex (2 s incubation)): 0.93 ± 0.06
- Relative reactivity of A2059 ([2]; RI complex): 0.96 ± 0.08
- Relative reactivity of A2062 ([2]; RI complex): 0.80 ± 0.06 ^b
- Relative reactivity of A2451 ([2]; RI complex): 0.40 ± 0.03 ^b
- Relative reactivity of G2505 ([2]; RI complex): 0.38 ± 0.05 ^b
- Relative reactivity of U2506 ([2]; RI complex): 0.47 ± 0.05 ^b
- Relative reactivity of U2609 ([2]; RI complex): 1.00 ± 0.08

Compound: O=C(CCCCC(=O)N[C@H](CO)[C@H](O)c1ccc([N+](=O)[O-])cc1)N[C@H](CO)[C@H](O)c1ccc([N+](=O)[O-])cc1 [Compound 4, N^1,N^6-Bis((1R,2R)-1,3-dihydroxy-1-(4-nitrophenyl)propan-2-yl)adipamide]
- Ki ([1]; encounter complex CI): 6000 ± 540 nM
- k off [1]: 0.0167 ± 0.00067 s⁻¹
- Ki [1, 3]: 1870 ± 150 nM
- activity compared to CAM ([1]; ranking by K i*): lower
- fold less efficient than compound 5 ([1]; ranking by K i*): 6 fold
- Relative reactivity of A2058 [2, 4]: 0.90 ± 0.09
- Relative reactivity of A2059 ([2]; R*I complex): 0.70 ± 0.07 ^b ^, ^c
- Relative reactivity of A2062 ([2]; R*I complex): 0.67 ± 0.05 ^b ^, ^c
- Relative reactivity of A2451 ([2]; R*I complex): 0.77 ± 0.05 ^b
- Relative reactivity of G2505 ([2]; R*I complex): 0.44 ± 0.03 ^b
- Relative reactivity of U2506 ([2]; R*I complex): 0.70 ± 0.04 ^b
- Relative reactivity of U2609 ([2]; R*I complex): 1.00 ± 0.07
- Relative reactivity of A2058 ([2]; RI complex (2 s incubation)): 0.99 ± 0.07
- Relative reactivity of A2059 ([2]; RI complex): 0.94 ± 0.06
- Relative reactivity of A2062 ([2]; RI complex): 0.88 ± 0.08 ^b
- Relative reactivity of A2451 ([2]; RI complex): 0.67 ± 0.04 ^b
- Relative reactivity of G2505 ([2]; RI complex): 0.43 ± 0.03 ^b
- Relative reactivity of U2506 ([2]; RI complex): 0.70 ± 0.05 ^b
- Relative reactivity of U2609 ([2]; RI complex): 1.00 ± 0.10

From article PMC4533973, “Synthesis and Evaluation of Chloramphenicol Homodimers: Molecular Target, Antimicrobial Activity, and Toxicity against Human Cells” (PLoS ONE, 2015)
